Measurements published in US7932384B2, “Reverse-turn mimetics and method relating thereto” (Choongwae Pharma Corporation, priority 2001, dated 2011).

Experiments:
Type in all cases: cell-based
[1] = tested on: TCF4; test: Effects of compounds on TCF4 expression (Table 9)
Description: (§1) The effects of various compounds having general formula (I) on surviving and TCF4 expression were characterized.

[2] = tested on: survivin; test: Effects of compounds on survivin expression (Table 9); conditions: for inhibition at 25 µM: Table 9, 25 uM; for inhibition at 5 µM: read-out: Survivin % inhibition 5 uM, Table 9, 5 uM
Description: A plasmid containing luciferase under the control of surviving promoter was constructed and transfected into wild type, CBP+/−, or p300+/−3T3 cells.
as §1

[3] = tested on: A253; test: Sulforhodamine B (SRB) assay, A253; conditions: Melanoma, A253, 48 hours
Description: (§2) Growth inhibitory effect of Compound A on the cells listed below was measured by the sulforhodamine B assay. SW480 cells in 100 μl media were plated in each well of 96-well plate and allowed to attach for 24 hours. Compound A was added to the wells to produce the desired final concentrations, and the plates were incubated at 37° C. for 48 hours. The cells were then fixed by gentle addition of 100 μl of cold (4° C.) 10% trichloroacetic acid to each well, followed by incubation at 4° C. for 1 hour. Plates were washed with deionized water five times and allowed to air dry. The cells were then stained by addition of 100 μl SRB solution (0.4% SRB(w/v) in 1% acetic acid (v/v)) to wells for 15 min. After staining, the plates were quickly washed five times with 1% acetic acid to remove any unbound dye, and allowed to air dry. Bound dye was solubilized with 10 mmol/L Tris base (pH 10.5) prior to reading the plates. The optical density (OD) was read on a plate reader at a wavelength of 515 nm with Molecular Device. Inhibition of growth was expressed as relative viability (% of control) and GI50 was calculated from concentration-response curves after log/probit transformation.
(§3) The values in Table 6 are in μg/ml.

[4] = tested on: G361; test: Sulforhodamine B (SRB) assay, G361; conditions: Melanoma, G361, 48 hours
Description: as §2, §3

[5] = tested on: A431; test: Sulforhodamine B (SRB) assay, A431; conditions: Melanoma, A431, 48 hours
Description: as §2, §3

[6] = tested on: HMV-I; test: Sulforhodamine B (SRB) assay, HMV-I; conditions: Melanoma, 48 hours
Description: as §2, §3

[7] = tested on: SW620; test: Sulforhodamine B (SRB) assay, SW620; conditions: Colon, SW620, 48 hours
Description: as §2, §3

[8] = tested on: PC3; test: Sulforhodamine B (SRB) assay, PC3; conditions: Prostate, PC3, 48 hours
Description: as §2, §3

[9] = tested on: MCF7/ADR; test: Sulforhodamine B (SRB) assay, MCF7/ADR; conditions: Breast, 48 hours
Description: as §2, §3

[10] = tested on: HT1080; test: Sulforhodamine B (SRB) assay, HT1080; conditions: Prostate, HT1080, 48 hours
Description: as §2, §3

[11] = tested on: KM12; test: Sulforhodamine B (SRB) assay, KM12; conditions: Colon, KM12, 48 hours
Description: as §2, §3

[12] = tested on: DLD-1; test: Sulforhodamine B (SRB) assay, DLD-1; conditions: Colon, DLD-1, 48 hours
Description: as §2, §3

[13] = tested on: A375; test: Sulforhodamine B (SRB) assay, A375; conditions: Melanoma, A375, 48 hours
Description: as §2, §3

[14] = tested on: K562/VIN; test: Sulforhodamine B (SRB) assay, K562/VIN; conditions: Leukemia, 48 hours
Description: as §2, §3

[15] = tested on: NCI H460; test: Sulforhodamine B (SRB) assay, NCI H460; conditions: Lung, NCI H460, 48 hours
Description: as §2, §3

[16] = tested on: M14; test: Sulforhodamine B (SRB) assay, M14; conditions: Melanoma, M14, 48 hours
Description: as §2, §3

[17] = tested on: 786-0; test: Sulforhodamine B (SRB) assay, 786-0; conditions: Renal, 786-0, 48 hours
Description: as §2, §3

[18] = tested on: SW480-CWP; test: Sulforhodamine B (SRB) assay, SW480-CWP; conditions: Colon, 48 hours
Description: as §2, §3

[19] = tested on: HT29; test: Sulforhodamine B (SRB) assay, HT29; conditions: Colon, HT29, 48 hours
Description: as §2, §3

[20] = tested on: 293; test: Sulforhodamine B (SRB) assay, 293; conditions: Renal, 293, 48 hours
Description: as §2, §3

[21] = tested on: HCT116; test: Sulforhodamine B (SRB) assay, HCT116; conditions: Colon, HCT116, 48 hours
Description: as §2, §3

[22] = tested on: ACHN; test: Sulforhodamine B (SRB) assay, ACHN; conditions: Renal, 48 hours
Description: as §2, §3

[23] = tested on: T84; test: Sulforhodamine B (SRB) assay, T84; conditions: Colon, T84, 48 hours
Description: as §2, §3

[24] = tested on: CRL1579; test: Sulforhodamine B (SRB) assay, CRL1579; conditions: Melanoma, CRL1579, 48 hours
Description: as §2, §3

[25] = tested on: MCF7; test: Sulforhodamine B (SRB) assay, MCF7; conditions: Breast, MCF7, 48 hours
Description: as §2, §3

[26] = tested on: K562; test: Sulforhodamine B (SRB) assay, K562; conditions: Leukemia, K562, 48 hours
Description: as §2, §3

[27] = tested on: HCC2998; test: Sulforhodamine B (SRB) assay, HCC2998; conditions: Colon, HCC2998, 48 hours
Description: as §2, §3

[28] = tested on: K562/ADR; test: Sulforhodamine B (SRB) assay, K562/ADR; conditions: Leukemia, 48 hours
Description: as §2, §3

[29] = tested on: LOVO; test: Sulforhodamine B (SRB) assay, LOVO; conditions: Colon, 48 hours
Description: as §2, §3

[30] = tested on: UACC62; test: Sulforhodamine B (SRB) assay, UACC62; conditions: Melanoma, UACC62, 48 hours
Description: as §2, §3

[31] = tested on: SW480-Kribb; test: Sulforhodamine B (SRB) assay, SW480-Kribb; conditions: Colon, 48 hours
Description: as §2, §3

[32] = tested on: COLO205; test: Sulforhodamine B (SRB) assay, COLO205; conditions: Colon, COLO205, 48 hours
Description: as §2, §3

[33] = tested on: CAKI-1; test: Sulforhodamine B (SRB) assay, CAKI-1; conditions: Renal, CAKI-1, 48 hours
Description: as §2, §3

[34] = tested on: NCI H23; test: Sulforhodamine B (SRB) assay, NCI H23; conditions: Lung, NCI H23, 48 hours
Description: as §2, §3

[35] = tested on: A549; test: Sulforhodamine B (SRB) assay, A549; conditions: Lung, A549, 48 hours
Description: as §2, §3

[36] = tested on: SK-MEL-5; test: Sulforhodamine B (SRB) assay, SK-MEL-5; conditions: Melanoma, SK-MEL-5, 48 hours
Description: as §2, §3

[37] = tested on: HCT15; test: Sulforhodamine B (SRB) assay, HCT15; conditions: Colon, HCT15, 48 hours
Description: as §2, §3

[38] = tested on: SK-MEL-28; test: Sulforhodamine B (SRB) assay, SK-MEL-28; conditions: Melanoma, SK-MEL-28, 48 hours
Description: as §2, §3

[39] = tested on: CACO-2; test: Sulforhodamine B (SRB) assay, CACO-2; conditions: Colon, CACO-2, 48 hours
Description: as §2, §3

[40] = tested on: LOX-IMVI; test: Sulforhodamine B (SRB) assay, LOX-IMVI; conditions: Melanoma, 48 hours
Description: as §2, §3

[41] = tested on: RPMI7951; test: Sulforhodamine B (SRB) assay, RPMI7951; conditions: Melanoma, RPMI7951, 48 hours
Description: as §2, §3

[42] = tested on: HL60; test: Sulforhodamine B (SRB) assay, HL60; conditions: Leukemia, HL60, 48 hours
Description: as §2, §3

[43] = tested on: RPMI8226; test: Sulforhodamine B (SRB) assay, RPMI8226; conditions: Leukemia, RPMI8226, 48 hours
Description: as §2, §3

[44] = tested on: caspase 2; test: Caspase 2 activity in cultured tumor cells; conditions: 0.5 μM
[45] = tested on: cultured tumor cells; test: FACS analysis of cells in G0, cultured tumor cells; conditions: 0.5 μM
[46] = tested on: cultured tumor cells; test: Cell death of cultured tumor cells; conditions: 0.5 μM
[47] = tested on: caspase 3; test: Caspase 3 activity in cultured tumor cells; conditions: 0.5 μM

## CN1CC(=O)N2[C@@H](CN(Cc3cccc4ccccc34)C(=O)[C@@H]2Cc2ccc(O)cc2)N1C(=O)NCc1ccccc1
[1]
  IC50: ~2 µM
[2]
  inhibition at 25 µM: 99%
  inhibition at 5 µM: 100%

## CN1CC(=O)N2[C@@H](CN(Cc3c(Cl)cc(Cl)c4cccnc34)C(=O)[C@@H]2Cc2ccc(O)cc2)N1C(=O)NCc1ccccc1
[1]
  IC50: 11.2 ± 1.5 µM
[2]
  inhibition at 25 µM: 58%
  inhibition at 5 µM: 6%

## 2-Methyl-5-(p-hydroxyphenylmethyl)-7-naphthylmethyl-3,6-dioxo-hexahydro-[1,2,4]triazolo[4,5-a]pyrazine-1-carboxylic acid benzylamide [Example 4]
[3]
  GI50 (SRB assay): 1.398 µg/mL
[4]
  GI50 (SRB assay): 0.584 µg/mL
[5]
  GI50 (SRB assay): 1.083 µg/mL
[6]
  GI50 (SRB assay): 1.153 µg/mL
[7]
  GI50 (SRB assay): 1.426 µg/mL
[8]
  GI50 (SRB assay): 1.207 µg/mL
[9]
  GI50 (SRB assay): 9.487 µg/mL
[10]
  GI50 (SRB assay): 1.469 µg/mL
[11]
  GI50 (SRB assay): 1.451 µg/mL
[12]
  GI50 (SRB assay): 1.775 µg/mL
[13]
  GI50 (SRB assay): 1.391 µg/mL
[14]
  GI50 (SRB assay): 1.640 µg/mL
[15]
  GI50 (SRB assay): 1.498 µg/mL
[16]
  GI50 (SRB assay): 2.289 µg/mL
[17]
  GI50 (SRB assay): 1.417 µg/mL
[18]
  GI50 (SRB assay): 0.980 µg/mL
[19]
  GI50 (SRB assay): 1.694 µg/mL
[20]
  GI50 (SRB assay): 0.731 µg/mL
[21]
  GI50 (SRB assay): 0.96 µg/mL
[22]
  GI50 (SRB assay): 1.263 µg/mL
[23]
  GI50 (SRB assay): 1.134 µg/mL
[24]
  GI50 (SRB assay): 1.830 µg/mL
[25]
  GI50 (SRB assay): 7.355 µg/mL
[26]
  GI50 (SRB assay): 1.247 µg/mL
[27]
  GI50 (SRB assay): 1.047 µg/mL
[28]
  GI50 (SRB assay): 7.682 µg/mL
[29]
  GI50 (SRB assay): 0.532 µg/mL
[30]
  GI50 (SRB assay): 0.563 µg/mL
[31]
  GI50 (SRB assay): 1.137 µg/mL
[32]
  GI50 (SRB assay): 1.136 µg/mL
[33]
  GI50 (SRB assay): 0.467 µg/mL
[34]
  GI50 (SRB assay): 1.296 µg/mL
[35]
  GI50 (SRB assay): 1.386 µg/mL
[36]
  GI50 (SRB assay): 0.888 µg/mL
[37]
  GI50 (SRB assay): 2.042 µg/mL
[38]
  GI50 (SRB assay): 1.291 µg/mL
[39]
  GI50 (SRB assay): 1.201 µg/mL
[40]
  GI50 (SRB assay): 1.526 µg/mL
[41]
  GI50 (SRB assay): 0.936 µg/mL
[42]
  GI50 (SRB assay): 1.243 µg/mL

## N.N.[Cl][Pt][Cl] [Cisplatin, cisplatin, reference compound]
[7]
  GI50 (SRB assay): >10 µg/mL
[8]
  GI50 (SRB assay): >10 µg/mL
[10]
  GI50 (SRB assay): >10 µg/mL
[11]
  GI50 (SRB assay): >10 µg/mL
[12]
  GI50 (SRB assay): >10 µg/mL
[13]
  GI50 (SRB assay): >10 µg/mL
[14]
  GI50 (SRB assay): >10 µg/mL
[15]
  GI50 (SRB assay): >10 µg/mL
[19]
  GI50 (SRB assay): >10 µg/mL
[21]
  GI50 (SRB assay): >10 µg/mL
[23]
  GI50 (SRB assay): >10 µg/mL
[25]
  GI50 (SRB assay): >10 µg/mL
[26]
  GI50 (SRB assay): >10 µg/mL
[43]
  GI50 (SRB assay): >10 µg/mL
[27]
  GI50 (SRB assay): >10 µg/mL
[28]
  GI50 (SRB assay): >10 µg/mL
[29]
  GI50 (SRB assay): >10 µg/mL
[30]
  GI50 (SRB assay): >10 µg/mL
[31]
  GI50 (SRB assay): >10 µg/mL
[32]
  GI50 (SRB assay): >10 µg/mL
[33]
  GI50 (SRB assay): >10 µg/mL
[35]
  GI50 (SRB assay): >10 µg/mL
[36]
  GI50 (SRB assay): >10 µg/mL
[37]
  GI50 (SRB assay): >10 µg/mL
[38]
  GI50 (SRB assay): >10 µg/mL
[40]
  GI50 (SRB assay): >10 µg/mL
[42]
  GI50 (SRB assay): >10 µg/mL

## CN[C@@H]1C[C@H]2O[C@@](C)([C@@H]1OC)n1c3ccccc3c3c4c(c5c6ccccc6n2c5c31)C(=O)NC4 [stausporine, staurosporine, reference compound]
[44]
  caspase 2 activity: increased both the caspase 2 and caspase 3 activities
[45]
  number of cells in G0 (FACS): increase the number of cells in G0
[46]
  cell death: promote cell death
[47]
  caspase 3 activity: increased both the caspase 2 and caspase 3 activities
